Laboratory results taken from ChEMBL document CHEMBL1201862, “PubChem BioAssay data set” (2004).
Counter-ions that a name gives are not always drawn. Activity calls are given as the source filed them.

How the values were obtained:
BJ [1] = experiment: cytotoxicity toward BJ-TERT-LT-ST fibroblasts, dose response, cell-based, RAS-independent, luminescence (AID 1935); format: functional; conditions: Homo sapiens;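 also: BJ fibroblasts immortalized with TERT plus LT and ST oncogenes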
[2] = cytotoxicity in HEK-293T cells, dose response, cytotoxicity control for TCR NF-kB inhibitor project, luminescence, T-cell screen hits (AID 489026); format: functional, cell-based;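 also: cells exposed to compound about 14 hours before the viability readout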
[3] = NIH-3T3 fibroblast cytotoxicity, dose response, cytotoxicity control, cell-based, fluorescence, Alamar Blue, secondary assay (AID 2327); format: functional;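 also: NIH-3T3 mouse fibroblasts cultured with fluconazole at 8 µg/mL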
[4] = inhibitors of firefly luciferase expression or activity, dose response, H4 neuroglioma cells, luminescence (AID 1990); format: functional, cell-based
BJ [5] = experiment: cells; format: functional, cell-based; conditions: Homo sapiens
[6] = target: T1, Neuropeptide Y receptor type 1 (Homo sapiens, UniProt P25929); experiment: Fluorescence-based counterscreen for agonists of NPY-Y2: cell-based high-throughput dose response assay for agonists of NPY-Y1.; format: functional
T1 sequence (P25929 whole entry): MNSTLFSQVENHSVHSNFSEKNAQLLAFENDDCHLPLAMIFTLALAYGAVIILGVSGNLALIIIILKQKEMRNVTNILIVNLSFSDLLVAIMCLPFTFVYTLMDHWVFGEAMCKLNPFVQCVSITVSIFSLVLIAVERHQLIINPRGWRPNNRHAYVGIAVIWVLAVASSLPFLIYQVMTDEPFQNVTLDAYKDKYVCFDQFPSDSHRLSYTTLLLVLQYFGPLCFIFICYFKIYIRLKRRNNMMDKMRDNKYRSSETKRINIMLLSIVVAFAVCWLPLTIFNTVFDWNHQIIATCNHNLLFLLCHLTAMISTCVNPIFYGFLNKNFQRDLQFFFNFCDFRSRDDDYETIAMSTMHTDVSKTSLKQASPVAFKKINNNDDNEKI

HEK293 = experiment: Fluorescence-based counterscreen for potentiators or agonists of NPY-Y2: cell-based high-throughput dose response assay to identify inhibitors of cyclic nucleotide gated ion channel (CNGC) activity. In this assay, the parental HEK293 cell line transfected with a cyclic-nucleotide gated ion channel (CNGC)-based cAMP sensor is used to measure inhibition of isoproterenol-induced CNGC activity by test compound.; format: functional; conditions: Homo sapiens;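 also: stimulus is 1 µM isoproterenol at EC100 plus PDE inhibitor Ro 20-1724 at 25 µM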
[7] = target: T2, Neuropeptide Y receptor type 2 (Homo sapiens, UniProt P49146); experiment: Fluorescence-based cell-based high-throughput dose response assay for agonists of NPY-Y2. [Related pubchem assays: 1703 (Screening assay (CNGC inhibitors).), 1359 (Screening assay (NPY-Y2 potentiators or agonists).), 1304 (Screening assay (NPY-Y1 potentiators or agonists).), 1710 (Screening assay (NPY-Y2 agonists).), 1791 (Summary AID.)]; format: functional
T2 sequence (P49146 whole entry): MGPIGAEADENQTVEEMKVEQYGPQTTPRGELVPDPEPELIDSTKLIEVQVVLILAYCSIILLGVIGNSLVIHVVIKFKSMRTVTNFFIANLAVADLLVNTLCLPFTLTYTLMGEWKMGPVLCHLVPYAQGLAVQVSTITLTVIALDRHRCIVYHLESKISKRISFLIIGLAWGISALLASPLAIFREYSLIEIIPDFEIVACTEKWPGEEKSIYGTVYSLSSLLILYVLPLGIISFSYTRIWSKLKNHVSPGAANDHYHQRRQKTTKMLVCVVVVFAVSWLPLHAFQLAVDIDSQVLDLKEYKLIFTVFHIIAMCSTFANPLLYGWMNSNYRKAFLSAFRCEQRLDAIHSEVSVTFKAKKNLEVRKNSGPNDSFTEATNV

[8] = Luminescence Cell-Based Dose Response HTS to Identify Inhibitors of 5'UTR Stem-Loop Driven Prion Protein mRNA Translation in H4 Neuroglioblastoma Cells. [Related pubchem assays: 1827 (Project Summary), 1813 (Primary HTS)]; format: functional
BJ [9] = experiment: cytotoxicity toward BJ-TERT fibroblasts, dose response, cell-based, RAS-independent, luminescence (AID 1933); format: functional; conditions: Homo sapiens
[10] = C. albicans growth with fluconazole, confirmation, fluorescence, retest (AID 2467); format: functional, cell-based
[11] = cytotoxicity toward DRD oncogenic fibroblasts, dose response, cell-based, non-viral oncogenic, luminescence (AID 1934); format: functional; conditions: Homo sapiens
[12] = LGR2 antagonists, dose response, cell-based, HEK293, CRE-luciferase reporter, cherry pick, set 2 (AID 743343); format: functional;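 also: transfected cells were stimulated with diluted bursicon conditioned medium after compound addition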
[13] = MC4R antagonists, dose response, counter-screen for LGR2 antagonist project, cell-based, plate reader, cherry pick (AID 743444); format: functional;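 also: transfected HEK 293 cells stimulated with alpha-MSH peptide; potency of inhibitors of the alpha-MSH evoked signal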
[14] = target: T3, Neuropeptides B/W receptor type 1 (Homo sapiens, UniProt P48145); experiment: Fluorescence-based dose response cell-based high throughput screening assay to identify antagonists of the G-protein coupled receptor 7 (GPR7). [Related pubchem assays: 1952 (Screening assay (GPR7 antagonists).), 1880 (Summary AID.)]; format: functional
T3 sequence (P48145 whole entry): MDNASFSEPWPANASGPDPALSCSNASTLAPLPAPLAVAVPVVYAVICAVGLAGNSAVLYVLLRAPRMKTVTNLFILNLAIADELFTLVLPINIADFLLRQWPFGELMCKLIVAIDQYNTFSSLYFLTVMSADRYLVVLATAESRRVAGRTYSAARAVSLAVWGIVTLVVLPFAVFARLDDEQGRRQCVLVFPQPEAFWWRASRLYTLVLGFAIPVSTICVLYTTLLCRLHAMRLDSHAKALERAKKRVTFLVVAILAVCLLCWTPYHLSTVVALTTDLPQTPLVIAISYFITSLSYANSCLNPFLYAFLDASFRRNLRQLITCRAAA

[15] = target: Melanin-concentrating hormone receptor 1 (Homo sapiens, UniProt Q99705); experiment: Fluorescence-based counterscreen for antagonists of the G-protein coupled receptor 7 (GPR7): cell-based high throughput dose response assay to identify antagonists of the melanin-concentrating hormone receptor 1 (MCHR1).; format: functional
Chain of Melanin-concentrating hormone receptor 1 (Q99705 whole entry): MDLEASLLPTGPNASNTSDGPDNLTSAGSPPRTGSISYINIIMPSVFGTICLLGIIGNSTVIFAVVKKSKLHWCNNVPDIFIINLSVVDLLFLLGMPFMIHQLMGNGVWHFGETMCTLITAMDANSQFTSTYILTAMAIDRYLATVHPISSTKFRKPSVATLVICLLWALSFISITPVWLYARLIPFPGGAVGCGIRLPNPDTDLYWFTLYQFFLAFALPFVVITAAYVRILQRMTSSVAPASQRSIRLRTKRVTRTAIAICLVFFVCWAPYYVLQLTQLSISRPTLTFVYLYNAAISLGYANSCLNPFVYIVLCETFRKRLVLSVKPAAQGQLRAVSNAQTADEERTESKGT

[16] = growth suppression of beta-catenin-knockout colon cells, dose response, cell-based, HCT116, human colon tumor (AID 1045); format: functional;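 also: HCT116 colon tumor cells with beta catenin knocked out; cells exposed to compound for 60 hours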
[17] = growth suppression of PTEN-null colon cells, dose response, cell-based, HCT116 PTEN knockout (AID 1047); format: functional;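 also: HCT116 colon tumor cells with PTEN knocked out; cells exposed to compound for 60 hours before readout; potency for loss of cell viability measured by luminescence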
Procathepsin L = Procathepsin L (Homo sapiens, UniProt P07711)
Chain of Procathepsin L (P07711 whole entry): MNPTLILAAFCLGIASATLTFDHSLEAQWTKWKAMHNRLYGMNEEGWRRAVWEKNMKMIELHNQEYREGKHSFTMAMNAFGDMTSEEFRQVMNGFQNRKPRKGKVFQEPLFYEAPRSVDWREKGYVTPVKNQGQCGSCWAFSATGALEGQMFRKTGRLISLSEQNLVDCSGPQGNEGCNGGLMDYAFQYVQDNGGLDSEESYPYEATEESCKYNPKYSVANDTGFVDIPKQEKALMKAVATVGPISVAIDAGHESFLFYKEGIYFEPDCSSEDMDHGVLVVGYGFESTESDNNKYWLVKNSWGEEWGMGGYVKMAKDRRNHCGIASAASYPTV

Aspartyl aminopeptidase = target: T4, Aspartyl aminopeptidase (Plasmodium falciparum 3D7, UniProt Q8I2J3)
T4 sequence (Q8I2J3 whole entry): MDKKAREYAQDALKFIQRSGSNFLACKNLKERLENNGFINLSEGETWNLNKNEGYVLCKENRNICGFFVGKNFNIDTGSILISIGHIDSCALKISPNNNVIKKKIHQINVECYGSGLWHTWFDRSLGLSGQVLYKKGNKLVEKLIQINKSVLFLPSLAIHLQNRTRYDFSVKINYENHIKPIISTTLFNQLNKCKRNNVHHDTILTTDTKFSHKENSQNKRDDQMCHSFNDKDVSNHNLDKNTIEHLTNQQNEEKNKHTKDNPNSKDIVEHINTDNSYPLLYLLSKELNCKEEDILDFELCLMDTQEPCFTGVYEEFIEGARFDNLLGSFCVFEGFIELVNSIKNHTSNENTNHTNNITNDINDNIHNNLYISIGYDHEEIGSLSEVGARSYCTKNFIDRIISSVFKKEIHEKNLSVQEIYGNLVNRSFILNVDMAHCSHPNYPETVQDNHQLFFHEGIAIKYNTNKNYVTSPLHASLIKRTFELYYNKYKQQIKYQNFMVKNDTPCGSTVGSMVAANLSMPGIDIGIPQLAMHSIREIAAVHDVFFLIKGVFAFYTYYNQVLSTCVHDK

Large T antigen = Large T antigen (Simian virus 40, UniProt P03070); format: functional, Betapolyomavirus macacae;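 also: Confirmatory-stage PubChem screen for compounds that inhibit SV40 T antigen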
Chain of Large T antigen (P03070 whole entry): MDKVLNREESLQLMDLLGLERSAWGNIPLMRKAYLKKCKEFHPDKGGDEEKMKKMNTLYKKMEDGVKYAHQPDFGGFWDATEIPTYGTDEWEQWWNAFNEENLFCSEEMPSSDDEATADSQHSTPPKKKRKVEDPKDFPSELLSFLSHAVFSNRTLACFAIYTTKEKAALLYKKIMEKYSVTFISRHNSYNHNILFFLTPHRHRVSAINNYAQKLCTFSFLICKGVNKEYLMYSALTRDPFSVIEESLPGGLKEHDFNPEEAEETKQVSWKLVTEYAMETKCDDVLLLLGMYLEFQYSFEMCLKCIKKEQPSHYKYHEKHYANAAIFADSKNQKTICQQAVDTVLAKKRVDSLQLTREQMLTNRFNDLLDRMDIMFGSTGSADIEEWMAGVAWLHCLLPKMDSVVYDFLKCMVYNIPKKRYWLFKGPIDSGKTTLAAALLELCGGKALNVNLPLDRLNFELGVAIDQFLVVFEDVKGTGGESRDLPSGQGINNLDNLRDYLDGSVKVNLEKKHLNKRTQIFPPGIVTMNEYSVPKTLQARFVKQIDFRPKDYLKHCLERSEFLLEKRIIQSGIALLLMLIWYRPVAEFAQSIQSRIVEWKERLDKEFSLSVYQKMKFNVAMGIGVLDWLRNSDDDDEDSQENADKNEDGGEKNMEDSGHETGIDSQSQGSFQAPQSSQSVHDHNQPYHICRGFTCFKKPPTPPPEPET

[18] = target: T5, Polyadenylate-binding protein 1 (Homo sapiens, UniProt P11940); experiment: PABP1 MLLE–PAM2 interaction inhibitors, dose response, miRNA deadenylation inhibitor project, biochemical, fluorescence polarization, Cy5-PAM2 peptide, secondary (AID 602260); format: functional; conditions: read-out: IC50_Mean
T5 sequence (P11940 whole entry): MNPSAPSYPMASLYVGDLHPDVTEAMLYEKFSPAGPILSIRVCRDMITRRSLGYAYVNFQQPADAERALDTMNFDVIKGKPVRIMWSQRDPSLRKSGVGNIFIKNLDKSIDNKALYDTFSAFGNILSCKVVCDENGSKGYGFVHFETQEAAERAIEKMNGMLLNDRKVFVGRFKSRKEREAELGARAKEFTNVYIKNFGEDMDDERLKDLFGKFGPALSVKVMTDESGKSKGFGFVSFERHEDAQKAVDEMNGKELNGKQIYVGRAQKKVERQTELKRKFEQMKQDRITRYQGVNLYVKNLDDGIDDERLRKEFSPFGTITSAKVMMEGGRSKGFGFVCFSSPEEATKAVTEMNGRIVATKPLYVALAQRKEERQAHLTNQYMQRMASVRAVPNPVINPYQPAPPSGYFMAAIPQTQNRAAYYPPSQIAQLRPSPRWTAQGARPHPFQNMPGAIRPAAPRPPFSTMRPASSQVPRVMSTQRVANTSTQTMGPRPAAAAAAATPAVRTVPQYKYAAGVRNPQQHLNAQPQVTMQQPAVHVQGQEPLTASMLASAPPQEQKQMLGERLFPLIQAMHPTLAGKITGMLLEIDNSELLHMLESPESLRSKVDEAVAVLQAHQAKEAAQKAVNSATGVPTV

Vero [19] = experiment: Vero cell cytotoxicity, cytotoxicity control for flavivirus capping enzyme inhibitors (AID 588742); format: functional; conditions: Chlorocebus sabaeus
Genome polyprotein = Genome polyprotein (dengue virus type 2, UniProt P29990); experiment: Dengue-2 NS5 methyltransferase inhibitors, primary screen, biochemical, confirmation dose response (AID 588689); format: functional
Chain of Genome polyprotein (P29990 2492-3391 limits assumed): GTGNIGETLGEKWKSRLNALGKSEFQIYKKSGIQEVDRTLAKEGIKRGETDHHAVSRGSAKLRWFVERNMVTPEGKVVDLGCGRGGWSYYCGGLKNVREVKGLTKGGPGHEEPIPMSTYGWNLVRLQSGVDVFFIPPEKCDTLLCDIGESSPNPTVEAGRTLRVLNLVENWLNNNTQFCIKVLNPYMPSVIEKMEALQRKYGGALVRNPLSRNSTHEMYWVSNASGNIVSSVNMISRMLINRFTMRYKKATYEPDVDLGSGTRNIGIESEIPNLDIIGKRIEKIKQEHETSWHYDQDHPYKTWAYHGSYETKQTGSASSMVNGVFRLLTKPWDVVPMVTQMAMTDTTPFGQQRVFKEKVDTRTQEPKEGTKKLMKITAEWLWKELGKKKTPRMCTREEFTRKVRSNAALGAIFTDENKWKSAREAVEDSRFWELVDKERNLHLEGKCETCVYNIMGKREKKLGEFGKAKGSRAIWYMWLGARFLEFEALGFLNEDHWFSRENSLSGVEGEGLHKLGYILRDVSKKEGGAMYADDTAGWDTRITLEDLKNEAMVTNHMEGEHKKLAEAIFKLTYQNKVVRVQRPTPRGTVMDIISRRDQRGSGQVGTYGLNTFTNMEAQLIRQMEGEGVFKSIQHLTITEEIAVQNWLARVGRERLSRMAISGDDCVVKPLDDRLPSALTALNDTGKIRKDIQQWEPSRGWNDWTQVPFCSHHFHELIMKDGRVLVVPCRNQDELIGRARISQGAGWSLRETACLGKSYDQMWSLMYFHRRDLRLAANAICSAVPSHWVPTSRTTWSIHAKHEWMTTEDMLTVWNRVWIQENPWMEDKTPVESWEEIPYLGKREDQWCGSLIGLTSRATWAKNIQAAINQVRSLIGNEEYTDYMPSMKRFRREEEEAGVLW

[20] = target: T5, Polyadenylate-binding protein 1; experiment: PABP1 MLLE–PAM2 binding inhibitor potency, dose response, biochemical, fluorescence polarization, FITC-PAM2 peptide (AID 602259); format: functional; conditions: read-out: IC50_Mean
[21] = target: Induced myeloid leukemia cell differentiation protein Mcl-1 (Homo sapiens, UniProt Q07820); format: functional
Chain of Induced myeloid leukemia cell differentiation protein Mcl-1 (Q07820 whole entry): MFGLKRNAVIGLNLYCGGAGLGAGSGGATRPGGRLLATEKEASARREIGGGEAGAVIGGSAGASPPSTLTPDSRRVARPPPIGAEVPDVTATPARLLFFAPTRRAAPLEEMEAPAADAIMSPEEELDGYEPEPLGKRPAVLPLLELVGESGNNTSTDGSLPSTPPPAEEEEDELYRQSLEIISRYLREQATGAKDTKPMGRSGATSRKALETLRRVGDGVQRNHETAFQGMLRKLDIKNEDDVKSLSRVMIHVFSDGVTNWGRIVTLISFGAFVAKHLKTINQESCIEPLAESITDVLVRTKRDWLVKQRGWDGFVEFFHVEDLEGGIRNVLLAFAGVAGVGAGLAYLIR

BJ [22] = experiment: cytotoxicity toward Ras-transformed BJeLR fibroblasts, dose response, cell-based, alamar blue fluorescence, cherrypicked samples (AID 2631); format: functional; conditions: Homo sapiens;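 also: confirmatory dose-response assay in RAS-dependent BJ fibroblasts engineered with TERT, LT and ST, with cytotoxicity read by fluorescence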
HeLa = experiment: HeLa cell cytotoxicity, dose response, cytotoxicity control, 24 h, cherry-picked samples (AID 504726); format: functional, cell-based; conditions: Homo sapiens;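 also: potency for cytotoxicity as loss of luminescence signal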
[23] = A Cell Based Secondary Assay To Explore Cytotoxicity of Compounds that Sensitize Mycobacterium Tuberculosis to Beta-Lactam Antibiotics.; format: functional
[24] = target: FAD-linked sulfhydryl oxidase ALR (Homo sapiens, UniProt P55789); experiment: inhibitors of human ALR sulfhydryl oxidase, dose response, biochemical, H2O2 detection, luminescence, cherry-pick (AID 493248)
Chain of FAD-linked sulfhydryl oxidase ALR (P55789 whole entry): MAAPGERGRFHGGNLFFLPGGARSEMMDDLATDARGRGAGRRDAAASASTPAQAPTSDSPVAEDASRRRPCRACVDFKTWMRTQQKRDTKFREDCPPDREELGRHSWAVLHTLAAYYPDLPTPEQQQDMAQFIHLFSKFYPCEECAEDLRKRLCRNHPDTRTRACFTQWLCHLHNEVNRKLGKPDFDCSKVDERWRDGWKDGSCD

[25] = HEp-2 cell cytotoxicity, dose response, cytotoxicity control for RSV inhibitor project, HTS (AID 2410); format: functional; conditions: human respiratory syncytial virus
Vero [26] = experiment: cells; format: functional, cell-based; conditions: Chlorocebus sabaeus

CN(C)c1ccc(-[n+]2c(-c3ccccc3)cc(-c3ccccc3)cc2-c2ccccc2)cc1.[O-][Cl+3]([O-])([O-])[O-]
EC50 (BJ [1]): 3 µM (inconclusive) | IC50 [2]: 55.4 µM (inactive) | EC50 [3]: 4.87 µM (active) | EC50 [4]: 8.27 µM (active) | EC50 (BJ [5]): 3.14 µM (active) | EC50 [6]: 24.4 µM (not active) | EC50 (HEK293): > 35.4 µM (not active) | EC50 [7]: > 35.4 µM (not active) | EC50 [8]: > 120 µM (not active) | EC50 (BJ [9]): 2.81 µM (active) | EC50 [10]: 0.132 µM (active) | EC50 [11]: 3.14 µM (active)

Cc1ccc(C(=O)n2nc(-n3cccc3)c3c(C)cc(C)nc32)cc1
AC50 [12]: 13.9 µM (active) | EC50 [6]: > 35.4 µM (not active) | EC50 (HEK293): > 35.4 µM (not active) | AC50 [13]: 1.22 µM (active) | EC50 [7]: > 35.4 µM (not active)

CCC(C)(C(=O)NC1CCCCC1)N(Cc1ccco1)C(=O)c1ccc2c(c1)OCO2 (centres undefined)
IC50 [14]: > 43.8 µM (not active) | IC50 [15]: > 43.8 µM (not active)

Cc1csc(NC(=O)NC2(C(F)(F)F)Oc3ccccc3O2)n1
EC50 [16]: 21.9 µM (active) | EC50 [17]: 24.8 µM (active) | IC50 (Procathepsin L): > 59.6 µM (not active) | IC50 (Aspartyl aminopeptidase): 2.02 µM (active) | IC50 (Large T antigen): 13.3 µM (active)

COc1cc(C(=S)N2CCN(c3ccccc3Cl)CC2)cc(O)c1O
EC50 [3]: > 150 µM (inactive) | IC50 [18]: > 66 µM (inactive) | CC50 (Vero [19]): > 40 µM (active) | IC50 (Genome polyprotein): > 100 µM (active) | EC50 [6]: > 35.4 µM (not active) | IC50 [20]: > 66 µM (inactive) | EC50 (HEK293): > 35.4 µM (not active) | EC50 [7]: > 35.4 µM (not active) | EC50 [10]: > 38 µM (not active)

COc1ccc(C2=CC(=O)C=CC2=O)cc1
IC50 [21]: 5.43 µM (active) | EC50 (BJ [22]): > 133 µM (inactive) | IC50 (Procathepsin L): > 59.6 µM (not active) | IC50 (Aspartyl aminopeptidase): 6.85 µM (active)

Cc1noc(C)c1CSCC(=O)Nc1nc2c(F)cc(F)cc2s1
AC50 (HeLa): > 350 µM (inactive)

O=C(c1ccccc1)N1CCC(CC2CC(c3cccc(Br)c3)=NO2)(C(=O)NCC2CCCCC2)CC1 (centres undefined)
CC50 [23]: > 40 µM (active)

NCCc1ccc(O)c(O)c1 [DOPAMINE HYDROCHLORIDE]
AC50 [24]: 1.42 µM (active) | IC50 (Procathepsin L): > 59.6 µM (not active) | IC50 (Aspartyl aminopeptidase): 1.98 µM (active)

CCOC(=O)COc1c(Cl)cc(C2NC(S)=NC(c3ccccc3)=C2C(C)=O)cc1OC (centres undefined)
IC50 [14]: > 43.8 µM (not active) | IC50 [15]: > 43.8 µM (not active)

Cc1[nH]c(C)c(S(=O)(=O)N2CCN(c3cccc(C(F)(F)F)c3)CC2)c1C(=O)N1CCCCC1
IC50 (cells): 23.3 µM (active) | CC50 [25]: 17.6 µM (active) | IC50 (Vero [26]): 22.4 µM (active)

CCC(=O)NC(=S)Nc1ccc(NC(=O)COc2ccc(Cl)c(C)c2)cc1
IC50 (cells): 39 µM (active) | CC50 [25]: > 50 µM (active)
